The results in this text go back to ChEMBL document CHEMBL5375957, “Optimization of Novel α7 Nicotinic Acetylcholine Receptor Positive Allosteric Modulators and the Discovery of a Preclinical Development Candidate Molecule (RGH-560)” (J Med Chem, 2023).

The nature of data set [1]: Kinetic solubility of compound at pH 7.4 incubated for 2 hrs by UV-HPLC analysis. The note with it: buffer, read-out: Kinetic_solubility. Format: physicochemical.
Data set [2] has as its target Neuronal acetylcholine receptor subunit alpha-7 (Homo sapiens, UniProt P36544). The data set is described as follows: Positive allosteric modulator activity at human alpha7 nAChR expressed in Flp-In HEK293 cells assessed as increase in calcium influx incubated for 10 mins by fluorescence based analysis. Format: cell-based.
Data set [3] in a line: Metabolic stability in human liver microsome assessed as intrinsic clearance measured per mg of protein incubated for 40 mins. The data set is classed as ADME. To be noted: liver microsomes, read-out: CLH. For orientation: Liver microsomes are vesicles of endoplasmic reticulum, rich in cytochrome P450 enzymes.
Data set [4] can be described thus: Metabolic stability in Wistar rat liver microsome assessed as intrinsic clearance measured per mg of protein incubated for 40 mins. Format: ADME. To be noted: liver microsomes, read-out: CLH.
Data set [5] in a line: Metabolic stability in NMRI mouse liver microsome assessed as intrinsic clearance measured per mg of protein incubated for 40 mins. The note with it: liver microsomes, read-out: CLH. The data set is classed as ADME.
The test system of data set [6] is Mus musculus. The experiment in a line: Cognitive activity in scopolamine induced amnesia NMRI mouse model assessed as recognition index at 1 to 10 mg/kg, ip pretreated with compound for 30 mins followed by scopolamine induction by Y maze test. The data set is classed as functional, organism-based. To be noted: dose 1-10 mg/kg.
The nature of data set [7]: Drug concentration in NMRI mouse brain at 1 mg/kg, ip measured after 1 hr by HPLC-MS/MS analysis. Format: ADME, organism-based. To be noted: read-out: Ct.
Data set [8] is described as follows: Drug concentration in NMRI mouse brain at 3 mg/kg, ip measured after 1 hr by HPLC-MS/MS analysis. The data set is classed as ADME, organism-based. The note with it: read-out: Ct.
Data set [9] is described as follows: Drug concentration in NMRI mouse brain at 10 mg/kg, ip measured after 1 hr by HPLC-MS/MS analysis. The data set is classed as ADME, organism-based. To be noted: read-out: Ct.
A short description of data set [10]: Drug concentration in NMRI mouse plasma at 1 mg/kg, ip measured after 1 hr by HPLC-MS/MS analysis. The data set is classed as ADME, organism-based.
A short description of data set [11]: Drug concentration in NMRI mouse plasma at 3 mg/kg, ip measured after 1 hr by HPLC-MS/MS analysis. Format: ADME, organism-based.
Data set [12] is described as follows: Drug concentration in NMRI mouse plasma at 10 mg/kg, ip measured after 1 hr by HPLC-MS/MS analysis. The data set is classed as ADME, organism-based.
Data set [13] is described as follows: Ratio of drug concentration in brain to plasma in NMRI mouse plasma at 1 mg/kg, ip measured after 1 hr by HPLC-MS/MS analysis. Format: ADME, organism-based.
Data set [14] is described as follows: Ratio of drug concentration in brain to plasma in NMRI mouse plasma at 3 mg/kg, ip measured after 1 hr by HPLC-MS/MS analysis. The data set is classed as ADME, organism-based.
Data set [15] is described as follows: Ratio of drug concentration in brain to plasma in NMRI mouse plasma at 10 mg/kg, ip measured after 1 hr by HPLC-MS/MS analysis. Format: ADME, organism-based.
Data set [16] is described as follows: Efflux ratio of apparent permeability in human Caco-2 cells at 10 uM. The data set is classed as ADME, cell-based.
Data set [17] is described as follows: Apparent permeability in human Caco2 cells at 10 uM. The note with it: Caco-2. Format: ADME, cell-based. A general note: Caco-2 cells form a polarised layer with tight junctions and transporters.
Data set [18] deals with Mus musculus. The data set is described as follows: Cognitive activity in scopolamine induced amnesia ip dosed NMRI mouse model assessed as minimum effective dose pretreated with compound for 30 mins followed by scopolamine induction. The note with it: 0.5 h. Format: functional.
The target of data set [19] is Voltage-gated inwardly rectifying potassium channel KCNH2 (Homo sapiens, UniProt Q12809). The data set is described as follows: Inhibition of hERG transfected in CHO cells at -80 mV holding potential by automated patch clamp assay. The data set is classed as toxicity, cell-based. (hERG is a cardiac potassium channel; its block is linked to QT prolongation.)
The nature of data set [20]: Metabolic stability in human Hepatocyte assessed as intrinsic clearance measured per million cells incubated for 40 mins. To be noted: hepatocytes, read-out: CLH. Format: ADME, cell-based.
Data set [21] can be described thus: Toxicity in NMRI mouse assessed as effect on locomotor activity at 30 mg/kg, ip. Format: organism-based. The note with it: in vivo.

Structures are written as SMILES. Converted amounts (≈) assume the structure as drawn. The source made the active and inactive calls. The rule behind the calls is not given here.

Neuronal acetylcholine receptor subunit alpha-7, sequence (P36544 whole entry): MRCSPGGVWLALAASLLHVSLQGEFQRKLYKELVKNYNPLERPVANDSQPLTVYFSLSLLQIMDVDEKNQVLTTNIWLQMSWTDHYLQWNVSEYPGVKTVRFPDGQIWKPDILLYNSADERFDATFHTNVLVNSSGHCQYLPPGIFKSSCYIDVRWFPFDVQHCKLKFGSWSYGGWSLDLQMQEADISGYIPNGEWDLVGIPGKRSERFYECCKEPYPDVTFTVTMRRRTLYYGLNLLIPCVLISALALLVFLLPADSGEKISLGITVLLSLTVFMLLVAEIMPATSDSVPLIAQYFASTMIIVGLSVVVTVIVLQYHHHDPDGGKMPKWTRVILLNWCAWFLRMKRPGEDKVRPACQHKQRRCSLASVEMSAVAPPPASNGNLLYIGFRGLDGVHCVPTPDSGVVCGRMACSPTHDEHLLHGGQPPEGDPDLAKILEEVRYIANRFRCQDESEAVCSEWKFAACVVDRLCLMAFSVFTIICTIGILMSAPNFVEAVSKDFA
Voltage-gated inwardly rectifying potassium channel KCNH2, sequence (Q12809 whole entry): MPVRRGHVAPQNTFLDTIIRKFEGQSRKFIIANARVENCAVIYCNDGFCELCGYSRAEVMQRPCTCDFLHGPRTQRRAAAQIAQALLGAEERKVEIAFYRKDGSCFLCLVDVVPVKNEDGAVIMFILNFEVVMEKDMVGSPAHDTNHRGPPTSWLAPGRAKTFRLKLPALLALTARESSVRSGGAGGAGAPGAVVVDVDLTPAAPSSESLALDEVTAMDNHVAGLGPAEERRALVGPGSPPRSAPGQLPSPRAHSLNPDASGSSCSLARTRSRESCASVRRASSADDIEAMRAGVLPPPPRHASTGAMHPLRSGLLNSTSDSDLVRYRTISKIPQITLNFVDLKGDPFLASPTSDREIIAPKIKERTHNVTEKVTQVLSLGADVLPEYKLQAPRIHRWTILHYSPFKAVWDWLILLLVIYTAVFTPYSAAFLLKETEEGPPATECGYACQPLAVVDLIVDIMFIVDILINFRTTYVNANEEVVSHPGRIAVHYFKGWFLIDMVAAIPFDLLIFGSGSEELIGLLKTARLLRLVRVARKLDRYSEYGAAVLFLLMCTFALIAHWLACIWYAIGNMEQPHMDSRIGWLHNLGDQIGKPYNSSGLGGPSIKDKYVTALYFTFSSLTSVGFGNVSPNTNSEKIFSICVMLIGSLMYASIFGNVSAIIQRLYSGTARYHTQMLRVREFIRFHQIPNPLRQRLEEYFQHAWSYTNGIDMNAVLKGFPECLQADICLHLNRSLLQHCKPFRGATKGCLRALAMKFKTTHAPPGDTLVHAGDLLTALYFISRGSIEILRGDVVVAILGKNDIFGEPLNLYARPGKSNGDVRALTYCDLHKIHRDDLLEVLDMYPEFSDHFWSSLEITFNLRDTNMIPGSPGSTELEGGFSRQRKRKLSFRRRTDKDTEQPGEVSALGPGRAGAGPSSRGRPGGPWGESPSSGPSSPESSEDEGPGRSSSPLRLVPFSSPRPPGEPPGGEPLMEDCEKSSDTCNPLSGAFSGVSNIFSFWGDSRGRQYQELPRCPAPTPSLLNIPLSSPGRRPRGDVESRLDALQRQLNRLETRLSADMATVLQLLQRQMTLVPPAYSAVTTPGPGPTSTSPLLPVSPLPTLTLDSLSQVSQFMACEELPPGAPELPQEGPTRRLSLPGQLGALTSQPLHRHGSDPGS

What is called EC50 is the concentration that produces a half-maximal response. By Kp is commonly meant tissue or fluid exposure divided by exposure in the circulation. For `Cn1ccc2cc(CNC(=O)N3CC(COc4ccc(C(F)(F)F)cc4)C3)cnc21`, in data set [1], the solubility kinetic at 2 h turned out to be 2.5 µM (≈ 1.05 µg/mL). In addition, the EC50 in data set [2] was found to be 0.2 µM. The values for the microsomal CLint in data set [3], in data set [4] and in [5] were 17 µL/min/mg, 77 µL/min/mg and 123 µL/min/mg, respectively. In the data set on Mus musculus [6], the outcome was Active. In addition, the concentration at 1 h in data set [7] came to 46.8 ng/g; in data set [8], 174 ng/g; in data set [9], 438 ng/g; in [10], 179 ng/mL; in [11], 689 ng/mL; in [12] it was 2090 ng/mL. Moreover, the Kp at 1 h in [13] came to 0.26; in data set [14] it was 0.25; in data set [15] it was 0.22.
A word on the efflux ratio: it is the permeability from basolateral to apical divided by that in the opposite direction, in the common usage. As a reminder, the Papp is a coefficient for how fast a substance crosses the barrier. The term IC50 denotes the concentration at which inhibition is half-maximal. The low end stands for greater potency in that assay, the high end for weaker potency in that assay. In the case of `O=C(NCc1ccc2[nH]ccc2c1)N1CC(COc2ccc(C(F)(F)F)c(F)c2)C1`, the solubility kinetic at 2 h in [1] amounted to 14.2 µM (≈ 5.98 µg/mL). Also, in data set [2], the EC50 came to 0.085 µM. Also, the microsomal CLint in data set [3] was 39 µL/min/mg; in data set [4], 44 µL/min/mg; in data set [5], 36 µL/min/mg. Moreover, the result in the data set with Mus musculus [6] was Active. The concentration at 1 h in data set [7] worked out at 201 ng/g; in [8], 678 ng/g; in data set [9], 2810 ng/g; in [10], 167 ng/mL; in data set [11] it was 610 ng/mL; in [12], 4230 ng/mL. The Kp at 1 h stood at 1.2 in data set [13], 1.12 in data set [14] and 0.66 in [15]. In data set [16], the efflux ratio at 10 µM was 1.3. Further, the Papp at 10 µM in [17] was 63 ×10⁻⁶ cm/s. Further, the MED in the data set on Mus musculus [18] is 3 mg/kg. Also, in data set [19], the IC50 amounted to 10 µM.
For `Cn1ccc2cc(CNC(=O)N3CC4(CC(=O)c5ccccc5O4)C3)ccc21`, the solubility kinetic at 2 h in data set [1] was determined as 51.5 µM (≈ 19.3 µg/mL). Besides, the microsomal CLint in data set [3] amounted to 24 µL/min/mg; in [4], 46 µL/min/mg; in data set [5], 52 µL/min/mg. Further, the result in the data set on Mus musculus [6] was Active.
Turning to `Cn1ccc2cc(CNC(=O)N3CC4(CC(=O)c5ccc(F)cc5O4)C3)ccc21`, the solubility kinetic at 2 h in data set [1] stood at 46 µM (≈ 18.1 µg/mL). The microsomal CLint in [3] came out at 13 µL/min/mg; in data set [4] it was 30 µL/min/mg; in [5], 49 µL/min/mg. Further, in the data set with Mus musculus [6], the result was Active. The concentration at 1 h is 29 ng/g in data set [7]; 78.5 ng/g in data set [8]; 248 ng/g in [9]; 107 ng/mL in [10]; 262 ng/mL in data set [11]; 2050 ng/mL in data set [12]. For the same compound, the Kp at 1 h was 0.27 in data set [13], 0.3 in [14] and 0.31 in data set [15]. Further, the MED in the data set on Mus musculus [18] came out at 10 mg/kg. Moreover, the hepatocyte CLint in data set [20] is 10.3 µL/min/1e6 cells. For the same compound, the Activity result in data set [21] is reported as “Non-Toxic”.
Turning to `Cc1cc2cc(CNC(=O)N3CC4(CC(=O)c5ccc(F)cc5O4)C3)ccc2[nH]1`, the solubility kinetic at 2 h in [1] is 38.7 µM (≈ 15.2 µg/mL). Moreover, the EC50 in data set [2] turned out to be 0.1 µM. Moreover, the microsomal CLint in [3] turned out to be 14 µL/min/mg; in [4] it was 25 µL/min/mg; in data set [5] it was 64 µL/min/mg. For the same compound, the outcome in the data set with Mus musculus [6] was Active.
